Where two headings read alike, the source gives them in different places. Ends that are not written are not given here.
Experiments:
Staphylococcus aureus = test: MIC by broth microdilution; assay type: cell-based
Description: (§1) The 5 designed and synthesized peptides of the invention, plus omiganan (peptide of the state of the art) were evaluated for their antimicrobial capacity in microdilution assays for determining the minimum inhibitory concentration (MIC). A first panel of 8 representative strains was analyzed in these assays, encompassing Gram positive and Gram negative bacteria. […] The lowest MIC values indicate a higher antimicrobial potency.
(§2) Subsequently, an analysis of a panel of clinical isolates including strains with different resistance mechanisms against conventional antibiotics was carried out, all of which are of clinical relevance. […] In Table 3 the results for a panel of Gram negative bacteria are shown, and in Table 4 for a panel of […] bacteria. In these tables the detected gene/s responsible for the resistance against antibiotics for each strain, are included.
(§3) Antimicrobial activity was analyzed by means of the determination of the MIC (minimum inhibitory concentration) by the microdilution technique. The technique was carried out in the standard fashion according to (CLSI M07-A9 Vol. 32 No 2. January 2012). The peptide concentration range used was from 0.5 μg/mL to 512 μg/mL in two-fold serial dilutions. The used medium was MH Difco broth supplemented with cations, at a final concentration of Ca^++20-25 mg/L and Mg^++10-12.5 mg/L. The working inoculum used corresponds to a 1/100 dilution of a bacterial suspension equivalent to 0.5 in the Mc Farland scale.

Pseudomonas aeruginosa = test: MIC by broth microdilution; assay type: cell-based
Description: as §1, §2, §3

E. coli = assay type: cell-based
Description: (§4) In vitro sensitivity assay of aerobically growing bacteria, using the disc diffusion method was performed according to the standards in the M2 document of the CLSI (Clinical and Laboratory Standards Institute: Performance Standards for Antimicrobial Disk Susceptibility Tests.) using the non-amidated peptides
(§5) In brief, intermediate solutions (10×) of the antimicrobial non-amidated peptides were prepared by serial dilutions 1:2, 1:4 and 1:8 by two-fold dilutions. Then, one part of the solution of the antimicrobial peptide 10× was added to nine parts of melted bacteriological agar. The antibiotic solution was added for each dilution, in the melted agar and cooled to 45-50° C. in a water bath. Then, the agar-antibiotic mixture was placed in a Petri dish until a 3-4 mm depth was reached. The inoculum is prepared with a turbidity of 0.5 in the McFarland scale (approximately 1-2 10^8 CFU/ml). The final inoculum required for the agar dilution test is 10^4 colony forming units (CFU) per “spot” having 5-8 mm in diameter. The inoculated plates must be incubated upside down at 35° C. for a period of 16-20 hs. MIC was recorded as the value of the lower dilution completely inhibiting bacterial development, without considering the development of a single colony or a slight film caused by the inoculum deposit. The final point in these cases will correspond to the concentration at which there is more than 80% reduction in growth as compared with the control.

S. cohnii = assay type: cell-based
Description: as §4, §5

K. pneumoniae = assay type: cell-based
Description: as §4, §5

S. aureus = assay type: cell-based
Description: as §4, §5

P. aeruginosa = assay type: cell-based
Description: as §4, §5

S. warnerii = assay type: cell-based
Description: as §4, §5

human erythrocytes = test: Erythrocyte hemolysis assay (cytotoxicity); assay type: cell-based
Description: Subsequently, the capacity of the peptides of the invention for lysing human erythrocytes was evaluated, as a measure of their cytotoxicity (Table 2). The assays were carried out according to the Examples and are expressed as a percentage of total lysis obtained with either water or the surfactant Tween 20. In this assays, the lower hemolysis percentage, the lower expected cytotoxic activity.
Evaluation of cytotoxic activity was performed by means of an erythrocyte hemolysis assay (according to Pure Appl. Chem., Vol. 79, No. 4, pp. 717-728, 2007). In brief, from a volume of heparinized human whole blood, 3 times that volume of PBS is added and centrifuged 10 minutes at 1500 rpm, repeating the washing two more times. 10% blood solutions in PBS were prepared with that pellet. Subsequently, each group was added the corresponding peptide at the indicated concentration and incubated at 37° C. for 30 minutes. […]

Escherichia coli = test system: Escherichia coli
Description: as §1, §2, §3

E. gallinarum = test system: E. gallinarum
Description: as §2, §3

S. haemolyticus = test system: S. haemolyticus
Description: as §2, §3

A. baumanii = test system: A. baumanii
Description: as §2, §3

E. raffinosus = test system: E. raffinosus
Description: as §2, §3

E. faecalis = test system: E. faecalis
Description: as §2, §3

S. saprophyticus = test system: S. saprophyticus
Description: as §2, §3

[1] = S. aureus 28, resistance gene ermA
[2] = S. aureus 33, resistance gene msrA
[3] = S. aureus 204, resistance gene ermA
[4] = S. aureus 239, resistance gene ermC
[5] = S. aureus M2832, resistance gene mecA
[6] = S. aureus M4046, resistance gene mecA
[7] = S. aureus M6784, resistance gene mecA
[8] = P. aeruginosa M7525, resistance gene spm
[9] = P. aeruginosa M7712, resistance gene spm
[10] = P. aeruginosa M7723, resistance gene kpc
[11] = P. aeruginosa M7728, resistance gene imp
[12] = P. aeruginosa M7907, resistance gene per
[13] = E. coli ABC11, resistance gene ctx-m-2
[14] = E. coli Cos15, resistance gene per + tem
[15] = E. coli LCA1, resistance gene ctx-m-2 + tem-1
[16] = E. coli M5306, resistance gene ctx-m-2 + tem-1 + per-2
[17] = E. coli M7859, resistance gene cit
[18] = E. coli M9209, resistance gene kpc
[19] = E. coli NEU23, resistance gene oxa-GIII + tem
[20] = E. gallinarum M2685, resistance gene vanC1 + vanA
[21] = E. gallinarum M2723, resistance gene vanC1 + vanA
[22] = A. baumanii FAV-1, resistance gene per + oxa-51 + oxa-58
[23] = A. baumanii M5179, resistance gene oxa-51
[24] = A. baumanii M5277, resistance gene per
[25] = A. baumanii M5282, resistance gene oxa-51
[26] = A. baumanii M7489, resistance gene oxa-51 + tem
[27] = A. baumanii M7978, resistance gene imp
[28] = A. baumanii M13523, resistance gene oxa-51

GLLKKWLKKWKEFKRIVGY-NH2 [peptide 2, GLLKKWLKKWKEFKRIVGY]
MIC (Staphylococcus aureus; [1]): 64 µg/mL
MIC (Staphylococcus aureus; [2]): 128 µg/mL
MIC (Staphylococcus aureus; [3]): 64 µg/mL
MIC (Staphylococcus aureus; [4]): 64 µg/mL
MIC (Staphylococcus aureus; S. aureus ATCC29213, WT): 64 µg/mL
MIC (Staphylococcus aureus; [5]): 128 µg/mL
MIC (Staphylococcus aureus; [6]): 128 µg/mL
MIC (Staphylococcus aureus; [7]): 32 µg/mL
MIC (Pseudomonas aeruginosa; [8]): 64 µg/mL
MIC (Pseudomonas aeruginosa; [9]): 64 µg/mL
MIC (Pseudomonas aeruginosa; [10]): 64 µg/mL
MIC (Pseudomonas aeruginosa; [11]): 64 µg/mL
MIC (Pseudomonas aeruginosa; [12]): 64 µg/mL
MIC in agar dilution (E. coli): 128 µg/mL
MIC in agar dilution (S. cohnii): 16 µg/mL
MIC in agar dilution (K. pneumoniae): 64 µg/mL
MIC in agar dilution (S. aureus): >128 µg/mL
MIC in agar dilution (P. aeruginosa): >128 µg/mL
MIC in agar dilution (S. warnerii): 8 µg/mL
hemolysis values (in words) (human erythrocytes): high hemolysis values
MIC (Escherichia coli; [13]): 32 µg/mL
MIC (Escherichia coli; [14]): 64 µg/mL
MIC (Escherichia coli; [15]): 64 µg/mL
MIC (Escherichia coli; [16]): 4 µg/mL
MIC (Escherichia coli; [17]): 32 µg/mL
MIC (Escherichia coli; [18]): 64 µg/mL
MIC (Escherichia coli; [19]): 32 µg/mL
MIC (E. gallinarum; [20]): 16 µg/mL
MIC (E. gallinarum; [21]): 32 µg/mL
MIC (S. haemolyticus): 8 µg/mL
MIC (A. baumanii; [22]): 16 µg/mL
MIC (A. baumanii; [23]): 32 µg/mL
MIC (A. baumanii; [24]): 32 µg/mL
MIC (A. baumanii; [25]): 8 µg/mL
MIC (A. baumanii; A. baumanii M5949, resistance gene oxa-23 + oxa-GVI): 32 µg/mL
MIC (A. baumanii; [26]): 8 µg/mL
MIC (A. baumanii; [27]): 16 µg/mL
MIC (A. baumanii; A. baumanii M9665, resistance gene oxa-51): 4 µg/mL
MIC (A. baumanii; [28]): 32 µg/mL
MIC (E. raffinosus): 8 µg/mL

WPKWWKWKRRWGRKKAKKRRG-NH2 [peptide 1]
MIC (Staphylococcus aureus; [1]): 32 µg/mL
MIC (Staphylococcus aureus; [2]): 32 µg/mL
MIC (Staphylococcus aureus; [3]): 64 µg/mL
MIC (Staphylococcus aureus; [4]): 32 µg/mL
MIC (Staphylococcus aureus; S. aureus ATCC29213, WT): 32 µg/mL
MIC (Staphylococcus aureus; [5]): 32 µg/mL
MIC (Staphylococcus aureus; [6]): 32 µg/mL
MIC (Staphylococcus aureus; S. aureus M6276, resistance gene ermA + lnuA): 16 µg/mL
MIC (Staphylococcus aureus; [7]): 32 µg/mL
MIC (Pseudomonas aeruginosa; P. aeruginosa M5109, resistance gene vim): 128 µg/mL
MIC (Pseudomonas aeruginosa; P. aeruginosa M5470, resistance gene ND): 128 µg/mL
MIC (Pseudomonas aeruginosa; [8]): 64 µg/mL
MIC (Pseudomonas aeruginosa; [9]): 64 µg/mL
MIC (Pseudomonas aeruginosa; [10]): 64 µg/mL
MIC (Pseudomonas aeruginosa; [11]): 128 µg/mL
MIC (Pseudomonas aeruginosa; [12]): 128 µg/mL
MIC in agar dilution (E. coli; non-amidated peptides, E. coli ATCC 25922, WT): >128 µg/mL
MIC in agar dilution (S. cohnii): 16 µg/mL
MIC in agar dilution (K. pneumoniae; non-amidated peptides, K. pneumoniae M13540, KPC): >128 µg/mL
MIC in agar dilution (S. aureus; non-amidated peptides, S. aureus ATCC29213, MSSA): >128 µg/mL
MIC in agar dilution (S. aureus; non-amidated peptides, S. aureus M6794, MRSA): >128 µg/mL
MIC in agar dilution (P. aeruginosa): >128 µg/mL
MIC in agar dilution (P. aeruginosa; non-amidated peptides, P. aeruginosa M13513, KPC): >128 µg/mL
MIC in agar dilution (S. warnerii): 16 µg/mL
therapeutic index (antimicrobial potency over the cytotoxicity percentage) (human erythrocytes; in words): highest therapeutic index values
Hemolysis % (1% Tween20) (human erythrocytes; peptide 128 ug/ml, percentage of total lysis obtained with 1% Tween20): 4%
Hemolysis % (water) (human erythrocytes; peptide 128 ug/ml, percentage of total lysis obtained with water): 3.4%
OD 540 nm (human erythrocytes; peptide 128 ug/ml, supernatant of human erythrocytes, 37° C., 30 minutes): 0.067
MIC (Escherichia coli; [13]): 128 µg/mL
MIC (Escherichia coli; [14]): 128 µg/mL
MIC (Escherichia coli; [15]): 128 µg/mL
MIC (Escherichia coli; [16]): 128 µg/mL
MIC (Escherichia coli; [17]): 128 µg/mL
MIC (Escherichia coli; [18]): 128 µg/mL
MIC (Escherichia coli; [19]): 128 µg/mL
MIC (E. faecalis): 64 µg/mL
MIC (E. faecalis; E. faecalis ATCC 51299, resistance gene vanB): 256 µg/mL
MIC (E. faecalis; E. faecalis M4449, resistance gene vanA): 128 µg/mL
MIC (E. faecalis; E. faecalis M4899, resistance gene vanB): 256 µg/mL
MIC (E. faecalis; E. faecalis M4992, resistance gene vanA): 128 µg/mL
MIC (E. faecalis; E. faecalis M6383, resistance gene vanA): 128 µg/mL
MIC (E. faecalis; E. faecalis M6534, resistance gene vanB): 128 µg/mL
MIC (E. gallinarum; [20]): 16 µg/mL
MIC (E. gallinarum; [21]): 32 µg/mL
MIC (S. haemolyticus): 16 µg/mL
MIC (A. baumanii; [22]): 64 µg/mL
MIC (A. baumanii; [23]): 64 µg/mL
MIC (A. baumanii; [24]): 64 µg/mL
MIC (A. baumanii; [25]): 64 µg/mL
MIC (A. baumanii; [26]): 64 µg/mL
MIC (A. baumanii; [27]): 64 µg/mL
MIC (A. baumanii; [28]): 64 µg/mL
MIC (S. saprophyticus): 16 µg/mL
